{"source": "patent US12491188B2", "about": "“Small molecule PARG inhibitors and methods of use thereof” (Board of Regents, The University of Texas System, priority 2019, dated 2025)", "key": {"[1]": {"test_system": "MDA-MB-231 control and PARG-KD cells", "experiment": "Sulforhodamine B (SRB) cytotoxicity, control vs PARG-KD cells", "type": "cell-based, human", "details": "72 h", "text": "Sulforhodamine B (SRB) Cytotoxicity Assay."}, "MRC-5 cells": {"test_system": "MRC-5 cells", "details": "SRB", "method": "Sulforhodamine B (SRB) Cytotoxicity Assay. […] Colorimetric or fluorescence analysis was performed in a FlexStation 3, using SoftMax Pro 7.0, Molecular Devices. Normalized graphs were generated with Prism 8 software, non-linear 4-parameter data fitting was performed for IC50 calculation."}, "PCNA in PC3 cells": {"target": "PCNA in PC3 cells (Homo sapiens (Human), UniProt P12004)", "sequence (P12004 whole entry)": "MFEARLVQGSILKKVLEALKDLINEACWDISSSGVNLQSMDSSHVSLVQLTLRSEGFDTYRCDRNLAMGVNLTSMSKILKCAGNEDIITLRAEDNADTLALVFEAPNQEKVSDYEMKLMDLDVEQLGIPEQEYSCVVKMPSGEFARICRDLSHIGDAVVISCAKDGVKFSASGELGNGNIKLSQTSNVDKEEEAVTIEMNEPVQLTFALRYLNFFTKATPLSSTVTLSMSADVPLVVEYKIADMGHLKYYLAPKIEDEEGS", "experiment": "Cellular thermal shift assay (CETSA), PCNA control", "type": "cell-based", "details": "10 μM, 2 h", "method": "PC3 cells treated with 10 μM JA2131 or DMSO were temperature shocked as described in the Examples and the resulting non-aggregated proteins were analyzed with Anti-PARG or Anti-PCNA antibody. Anti-Histone H3 was used as loading control.\nCellular thermal shift assay (CETSA). CETSA was performed as described in Molina et al., 2013. Briefly, PC3 cells were treated with 10 μM JA2131 or an equivalent volume of DMSO for 2 h, washed three times with PBS and extracted for total cell lysate. 10% glycerol was added to the samples before subjecting to heat. Gradient thermal cycler (C1000 Touch, Bio-Rad) was used to heat samples at 42, 57, 66, 72, 77 and 85° C. for 3 min and chilled on ice for 5 min. Then, samples were centrifuged at 14,000 rpm for 20 min at 4° C. Supernatants were carefully removed and analyzed by Western blotting analysis."}, "[2]": {"test_system": "MDA-MB-231 control and PARG-KD cells", "experiment": "Western blot of cellular PARylation (anti-PAR)", "type": "cell-based, human", "method": "Thus, dose-dependent JA2131-induced cellular PARylation with and without IR was investigated. For combined IR treatment, MDA-MB-231 cells were treated with JA2131 for 2 h, followed by 7 Gy X-ray and then allowed to recover for an hour before cellular extraction and Western blotting analysis.\nUsing shRNA, next, a stable MDA-MB-231 PARG knockdown (PARG-KD) cell-line was generated (FIG. 23). Comparison of PARGi JA2131-induced PARylation in PARG-KD and control cells was performed. It was reasoned that PARG-KD cells would show a reduced response to a selective PARGi as the stable PARG-KD cells would have to adopt a PARG-independent survival mechanism. MDA-MB-231 control cells and PARG-KD cells were treated with JA2131 then total cell lysates were subjected to immunoblotting with anti-PAR antibody, followed by immunodetection for anti-PARG, PARP1 and actin antibody (FIG. 22b). Untreated PARG-KD cells show a higher baseline level of PARylation than the control cells. […] Dose-response curves comparing control and PARG-KD cells further validate the selective action of JA2131 on control cells expressing PARG, but not on the PARG-KD cells (FIG. 25).\nAntibodies and western blots. Cells were grown in 6-well plates and 10 cm dishes, treated with PARGi for 2 hours, irradiated and recovered for 1 hour before harvesting. Cells were irradiated, ranging from 1 to 10 Gy using RAD SOURCE, RS-2000, Biological System, RadSource.com. Cells were washed with phosphate buffer and saline (PBS) and lysed with buffer containing 50 mM Hepes, pH 7.5, 1% (v/v) igepal-C630, 1 mg/ml bacitracin, 1 mM EDTA, 10 mM NaF, 1 mM sodium orthovanadate, 10% (v/v) glycerol, 50 mM NaCl, 1 mM PMSF, and Protease Inhibitor Cocktail Set III (EMD Millipore). The detergent-soluble fraction was used for Western blotting. Cell fractionation was carried out using the Subcellular Protein Fractionation Kit (#78840, ThermoFisher) according to the manufacturer's instruction. Primary antibodies were purchased from the following sources; Actin, γH2AX and Histone-H3 was from Cell Signaling Technology. H2AX and LAMB1 were from Invitrogen/ThermoFisher. PCNA and p53 were from Santa Cruz biotechnology. Anti-PAR (10H) was from EMD Millipore, anti-PARG was from Cell Signaling Technology, and Anti-PARP1 was from ABCAM. Secondary antibodies were conjugated HRP (Cell Signaling) and ECL Clarity was purchased from Bio-Rad. All primary and secondary antibodies were diluted 1:1000 with 5% non-fat Blotting Grade Blocking Reagent in 1× TBST, except for anti-PAR 1:500."}, "[3]": {"test_system": "PARP inhibitor resistant SUM149PT cells", "experiment": "PAR and γH2AX high content imaging in PARPi resistant cells", "type": "cell-based, human", "details": "10 μM, 2 hours, 3 Gy IR; four PARPi resistant clones and wild type", "method": "PARPi resistant SUM149PT cells clone 6, 10, 11, 18 together with the wild type (WT) were treated with 10 μM JA2131 for 2 hours, irradiated 3Gy ionizing radiation and then fixed, immunofluorescence labelled for PAR and γH2AX. High content imaging showing specific accumulation of PAR and DNA damage induction observed with γH2AX signal in cells treated with PARGi. (Right) Immunoblotting of total cell-lysates of PARP1i resistant SUM149PT cells showing no change in the PARG (upper panel) and p53 (middle panel) protein expression level. Anti-actin was used as loading control (bottom panel).\nPARG was evaluated as a therapeutic option for patients who become PARP1 inhibitor resistant. PARP1 inhibitor resistant SUM149PT triple negative breast cancer cell-lines were generated with 100 nM talazoparib for 5 constitutive days and then with 15-50 nM talazoparib until resistant cells grew into clones. The resulting resistant cell clones were propagated and expanded to generate PARP inhibitor resistant SUM149PT derivative cells that no longer responded to PARP1i treatment. It was then investigated whether the PARP resistant breast cancer cells would respond to the PARG inhibitors. Four PARPi resistant SUM149PT cell clones together with wild type cells were treated with JA2131. PAR accumulation and γH2AX foci formation were analyzed by high content imaging (FIG. 21)."}, "PARP1": {"target": "PARP1 (Homo sapiens (Human), UniProt P09874)", "sequence (P09874 whole entry)": "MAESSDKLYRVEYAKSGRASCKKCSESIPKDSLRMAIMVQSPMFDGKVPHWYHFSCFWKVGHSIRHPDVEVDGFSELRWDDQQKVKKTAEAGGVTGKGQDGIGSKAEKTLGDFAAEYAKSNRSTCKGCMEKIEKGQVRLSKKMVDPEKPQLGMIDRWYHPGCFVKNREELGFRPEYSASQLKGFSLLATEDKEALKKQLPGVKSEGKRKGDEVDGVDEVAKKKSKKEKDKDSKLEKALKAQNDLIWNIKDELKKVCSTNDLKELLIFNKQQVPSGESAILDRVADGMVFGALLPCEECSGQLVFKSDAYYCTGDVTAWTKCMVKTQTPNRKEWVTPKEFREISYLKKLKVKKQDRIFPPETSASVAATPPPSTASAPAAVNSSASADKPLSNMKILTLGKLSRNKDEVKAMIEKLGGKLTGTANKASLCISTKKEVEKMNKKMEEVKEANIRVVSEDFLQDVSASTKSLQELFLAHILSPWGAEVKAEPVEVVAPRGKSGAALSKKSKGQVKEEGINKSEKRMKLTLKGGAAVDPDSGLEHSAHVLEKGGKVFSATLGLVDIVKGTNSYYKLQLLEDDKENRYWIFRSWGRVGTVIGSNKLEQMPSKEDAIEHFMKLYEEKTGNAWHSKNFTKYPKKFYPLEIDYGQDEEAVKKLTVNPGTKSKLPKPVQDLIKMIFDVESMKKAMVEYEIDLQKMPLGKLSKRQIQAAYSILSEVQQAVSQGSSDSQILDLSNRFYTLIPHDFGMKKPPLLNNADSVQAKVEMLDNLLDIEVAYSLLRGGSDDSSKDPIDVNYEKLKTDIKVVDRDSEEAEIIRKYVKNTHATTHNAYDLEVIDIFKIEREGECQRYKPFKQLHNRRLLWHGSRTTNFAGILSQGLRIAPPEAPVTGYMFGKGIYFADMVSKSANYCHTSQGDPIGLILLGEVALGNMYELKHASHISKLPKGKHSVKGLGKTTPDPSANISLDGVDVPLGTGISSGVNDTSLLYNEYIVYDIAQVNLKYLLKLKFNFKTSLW", "experiment": "In vitro PARP1 auto-PARylation"}}}
{"smiles": "O=C1C(Cl)=C(Cl)C(Cl)(Cl)C(Cl)=C1Cl", "note": "[JA2131]", "values": [{"measurement": "IC50 value for PARG-depleted cells compared to control cells", "setting": "[1]", "result": "~10", "unit": "fold"}, {"measurement": "PARG-KD cells that responded to the PARGi", "setting": "[1]", "result": 50, "unit": "%"}, {"measurement": "cytotoxic dose in MRC-5 cells relative to MDA-MB-231 cells", "setting": "MRC-5 cells", "result": "an order of magnitude higher"}, {"measurement": "change in thermal stability of PCNA control", "setting": "PCNA in PC3 cells", "result": "no significant change"}, {"measurement": "cellular PARylation, PARGi combined with IR", "setting": "[2]; MDA-MB-231, 100 nM, 2 h, 7 Gy X-ray, 1 h recovery", "result": "massive increase in cellular PARylation"}, {"measurement": "cellular PARylation, PARGi alone", "setting": "[2]; MDA-MB-231, without IR, 1 to 5 μM doses", "result": "dose-dependent increase in cellular PARylation"}, {"measurement": "PAR accumulation in PARG-KD cells", "setting": "[2]; MDA-MB-231 PARG knockdown cells", "result": "did not affect the level of PAR accumulation"}, {"measurement": "PAR accumulation in control cells expressing PARG", "setting": "[2]; MDA-MB-231 control cells", "result": "measurable increase in PAR"}, {"measurement": "PAR accumulation and γH2AX staining", "setting": "[3]", "result": "increased PAR accumulation as well as γH2AX staining"}, {"measurement": "concentration up to which PARP1 activation was not inhibited", "setting": "PARP1; in vitro PARP1 auto PARylation", "result": "> 100", "unit": "µM"}, {"measurement": "effect on PARP1 auto-PARylation / PAR synthesis by PARP1", "setting": "PARP1; increasing concentration of compound", "result": "no effect"}]}
